Patent US10208033B2, “β-carboline, dihydro-β-carboline and tetrahydro-β-carboline alkaloid derivatives and preparation methods same and use in aspects of preventing and treating plant viruses, fungicides and insecticides” (NANKAI UNIVERSITY, priority 2013, dated 2019)
In brackets after ≈: the same amount, converted by molar mass.

Legend:
culex pipiens larvae = conditions: in vivo; cited from earlier work
Lipaphis erysimi = conditions: in vivo; cited from earlier work
[1] = target: monoamine oxidase (MAO-A) (Homo sapiens, UniProt P21397); conditions: cited from earlier work
[2] = system: tobacco mosaic virus (TMV); experiment: Anti-TMV in vitro effect (half-leaf soaking); format: cell-based, tobacco mosaic virus (host Nicotiana tabacum L.cv.Xanthi NN)
[3] = system: tobacco mosaic virus (TMV); experiment: Anti-TMV in vivo inactivation; set-up: species or system tobacco mosaic virus (host Nicotiana tabacum L.cv.Xanthi NN)
[4] = system: tobacco mosaic virus (TMV); experiment: Anti-TMV in vivo therapeutic effect; set-up: species or system tobacco mosaic virus (host Nicotiana tabacum L.cv.Xanthi NN)
[5] = system: tobacco mosaic virus (TMV); experiment: Anti-TMV in vivo protective effect; set-up: species or system tobacco mosaic virus (host Nicotiana tabacum L.cv.Xanthi NN)
cucumber fusarium wilt = experiment: Fungicidal (bactericidal) activity in vitro, PDA colony diameter; format: cell-based; conditions: 50 mg/kg
Cercospora arachidicola = experiment: as above; format: cell-based; conditions: 50 mg/kg
Macrophoma kawatsukai = experiment: as above; format: cell-based; conditions: 50 mg/kg
Alternaria solani = experiment: as above; format: cell-based; conditions: 50 mg/kg
Fusarium graminearumt = experiment: microbe, parasite or virus in culture; format: cell-based; conditions: for Bactericidal activity (%) Fusarium graminearumt: 50 mg/kg
potato late blight = experiment: microbe, parasite or virus in culture; format: cell-based
Sclerotinia scleotiorum = experiment: Fungicidal (bactericidal) activity in vitro, PDA colony diameter; format: cell-based; conditions: 50 mg/kg
Botrytis cinerea = experiment: as above; format: cell-based; conditions: 50 mg/kg
Rhizoctonia solani = experiment: as above; format: cell-based; conditions: 50 mg/kg
Phytophthora capsici = experiment: as above; format: cell-based; conditions: 50 mg/kg
Fusarium fujikuroi = experiment: as above; format: cell-based; conditions: 50 mg/kg
Rhizoctonia cereali = experiment: as above; format: cell-based; conditions: 50 mg/kg
Bipolaria maydis = experiment: organism not typed; format: cell-based; conditions: for Bactericidal activity (%) Bipolaria maydis: 50 mg/kg
[6] = system: Colletotrichum orbiculare; experiment: Fungicidal (bactericidal) activity in vitro, PDA colony diameter; format: cell-based; conditions: 50 mg/kg
armyworms = format: in vivo; conditions: concentration 600 mg/kg
cotton bollworms = experiment: whole plant or invertebrate; conditions: for Cotton bollworm Mortality (%): concentration 600 mg/kg
Experimental: Experimental method of cotton bollworms: feed and drug mixing method: measure 3 mL of prepared solution and add it to about 27 g of newly prepared feed, thereby obtaining needed concentration through dilution by 10 times.

mosquito larvae = experiment: whole plant or invertebrate; conditions: 24 h; for Mosquito larvae Mortality (%): concentration 10 mg/kg
Outline: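 Early fourth-instar Culex pipiens pallens larvae from an indoor colony, 10 per beaker, exposed to test compound at 5 ppm in water, diluted from a 1000 ppm acetone mother solution. Blank: water containing 0.5 mL test solvent.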

HL60 = conditions: cited from earlier work
corn borers [7] = experiment: whole plant or invertebrate; conditions: read-out: Corn borer Mortality (%)
14 kinds of fungi = experiment: Bactericidal activity, overall statements on Table 2; format: cell-based; conditions: Table 2, 50 mg/kg
Description: In vitro test method (Alternaria solani is taken for example. Alternatively, other fungi may be used): Inoculate Alternaria solani to PDA culture medium, culture it for 7 days, prepare […] bacteria plates from colony edge by a puncher, inoculate […] and drug-free PDA culture media, culture them for 4 days, measure colony diameter, compare with the control group and calculate the inhibition percentage of the drug.

corn borers [8] = conditions: concentration 600 mg/kg

Chain of monoamine oxidase (MAO-A) (P21397 whole entry, species assumed): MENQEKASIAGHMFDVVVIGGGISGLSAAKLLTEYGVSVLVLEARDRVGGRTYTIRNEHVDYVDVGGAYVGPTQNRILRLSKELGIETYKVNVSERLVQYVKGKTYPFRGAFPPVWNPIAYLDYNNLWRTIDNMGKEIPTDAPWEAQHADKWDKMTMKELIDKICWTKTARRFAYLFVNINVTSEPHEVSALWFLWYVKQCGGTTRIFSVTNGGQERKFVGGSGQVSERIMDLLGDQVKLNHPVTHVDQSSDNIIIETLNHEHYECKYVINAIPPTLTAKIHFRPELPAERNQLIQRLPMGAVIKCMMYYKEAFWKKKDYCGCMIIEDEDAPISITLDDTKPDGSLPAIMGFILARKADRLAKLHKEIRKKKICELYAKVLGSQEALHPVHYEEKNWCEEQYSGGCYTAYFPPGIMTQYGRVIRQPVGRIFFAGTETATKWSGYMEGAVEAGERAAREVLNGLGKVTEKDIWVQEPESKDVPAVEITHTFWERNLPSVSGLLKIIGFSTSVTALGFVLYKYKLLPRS

COC(=O)c1cc2c([nH]c3ccccc32)c(-c2ccccc2)n1
LC50 against culex pipiens larvae (culex pipiens larvae): 20.82 µg/mL (≈ 68.9 µM)
LC50 against Lipaphis erysimi (Lipaphis erysimi): 53.16 µg/mL (≈ 176 µM)

COC(=O)C1Cc2c([nH]c3ccccc23)C(c2ccccc2)N1 (stereo not shown)
LC50 against culex pipiens larvae (culex pipiens larvae): 23.98 µg/mL (≈ 78.3 µM)
LC50 against Lipaphis erysimi (Lipaphis erysimi): 68.05 µg/mL (≈ 222 µM)

COc1ccc2c3c([nH]c2c1)C(C)=NCC3 [Harmaline]
inhibition of monoamine oxidase (MAO-A) [1]: reversible inhibitor

COc1ccc2c(c1)[nH]c1c(C)nccc12 [Harmine]
inhibition at 100 µg/mL ([2]; Tobacco mosaic virus, treatment dose 100 μg/mL, read-out: Relative inhibition rate (%) In vitro activity): 20%
inhibition at 500 µg/mL ([2]; Tobacco mosaic virus, treatment dose 500 μg/mL, read-out: Relative inhibition rate (%) In vitro activity): 44.6%
inhibition at 100 µg/mL ([3]; Tobacco mosaic virus, treatment dose 100 μg/mL, read-out: Relative inhibition rate (%) In vivo inactivation): 11.4%
inhibition at 500 µg/mL ([3]; Tobacco mosaic virus, treatment dose 500 μg/mL, read-out: Relative inhibition rate (%) In vivo inactivation): 40.5%
inhibition at 100 µg/mL ([4]; Tobacco mosaic virus, treatment dose 100 μg/mL, read-out: Relative inhibition rate (%) In vivo therapy): 15.8%
inhibition at 500 µg/mL ([4]; Tobacco mosaic virus, treatment dose 500 μg/mL, read-out: Relative inhibition rate (%) In vivo therapy): 38.6%
inhibition at 100 µg/mL ([5]; Tobacco mosaic virus, treatment dose 100 μg/mL, read-out: Relative inhibition rate (%) In vivo protection): 16.3%
inhibition at 500 µg/mL ([5]; Tobacco mosaic virus, treatment dose 500 μg/mL, read-out: Relative inhibition rate (%) In vivo protection): 42.4%
inhibition of growth at 50 mg/kg (cucumber fusarium wilt; Fusarium, 96 h): 28.6%
inhibition of growth at 50 mg/kg (Cercospora arachidicola; Mycosphaerella arachidis, 96 h): 57.1%
inhibition at 50 mg/kg (Macrophoma kawatsukai): 35.3%
inhibition of growth at 50 mg/kg (Alternaria solani; Alternaria solani, 96 h): 83.3%
inhibition of growth at 50 mg/kg (Fusarium graminearumt; Fusarium, 96 h, read-out: Bactericidal activity (%) Fusarium graminearumt): 92.9%
inhibition of growth at 50 mg/kg (potato late blight; Phytophthora infestans, 96 h, read-out: Bactericidal activity (%) potato late blight): 35%
inhibition of growth at 50 mg/kg (Sclerotinia scleotiorum; Sclerotinia, 96 h): 48%
inhibition of growth at 50 mg/kg (Botrytis cinerea; Botrytis cinerea, 96 h): 59.1%
inhibition of growth at 50 mg/kg (Rhizoctonia solani; Rhizoctonia solani, 96 h): 21.4%
inhibition of growth at 50 mg/kg (Phytophthora capsici; Phytophthora capsici, 96 h): 60.6%
inhibition of growth at 50 mg/kg (Fusarium fujikuroi; Fusarium fujikuroi, 96 h): 57.1%
inhibition of growth at 50 mg/kg (Rhizoctonia cereali; Rhizoctonia, 96 h): 71.9%
inhibition at 50 mg/kg (Bipolaria maydis; read-out: Bactericidal activity (%) Bipolaria maydis): 31.6%
inhibition of growth at 50 mg/kg ([6]; Colletotrichum orbiculare, 96 h): 57.1%
Armyworm Mortality (%) (armyworms): 20%
mortality at 600 mg/kg (cotton bollworms; Helicoverpa armigera, in Gossypium hirsutum, read-out: Cotton bollworm Mortality (%)): 15%
mortality at 10 mg/kg (mosquito larvae; Culex pipiens, read-out: Mosquito larvae Mortality (%)): 45%
cytotoxicity to leukemia cell line HL60 (HL60): shows cytotoxicity
mortality at 600 mg/kg (corn borers [7]): 15%

Cc1nc(C=O)cc2c1[nH]c1ccccc12 [Ia-13, 1-methyl-pyridino [3,4-b] indol-3-formaldehyde]
melting point: 194 to 196 °C

CC[C@@H]1N[C@H](C(=O)O)Cc2c1[nH]c1ccccc21 [Ib-3, (1S, 3S)-1-ethyl-2,3,4,9-tetrahydropyridino [3,4-b] indol-3-formic acid]
melting point: 277 to 280 °C

C[C@@H]1N[C@H](C(=O)NN=Cc2ccc(C(C)(C)C)cc2)Cc2c1[nH]c1ccccc21 [Ic-2, (1S, 3S)—N′-(4-tert-butylbenzylidene)-1-methyl-2,3,4,9-tetrahydropyridino [3,4-b] indol-3-formylhydrazine]
Relative inhibition rate (%) In vitro activity ([2]; treatment dose 100 μg/mL): 17.6%
Relative inhibition rate (%) In vitro activity ([2]; treatment dose 500 μg/mL): 52.4%
Relative inhibition rate (%) In vivo inactivation ([3]; treatment dose 100 μg/mL): 13.3%
Relative inhibition rate (%) In vivo inactivation ([3]; treatment dose 500 μg/mL): 50.3%
Relative inhibition rate (%) In vivo therapy ([4]; treatment dose 100 μg/mL): 18.2%
Relative inhibition rate (%) In vivo therapy ([4]; treatment dose 500 μg/mL): 47%
Relative inhibition rate (%) In vivo protection ([5]; treatment dose 100 μg/mL): 21.7%
Relative inhibition rate (%) In vivo protection ([5]; treatment dose 500 μg/mL): 53.8%
Bactericidal activity (%) Cucumber fusarium wilt (cucumber fusarium wilt): 65.4%
Bactericidal activity (%) Cercospora arachidicola (Cercospora arachidicola): 82.4%
Bactericidal activity (%) Macrophoma kawatsukai (Macrophoma kawatsukai): 97.2%
Bactericidal activity (%) Alternaria solani (Alternaria solani): 70.0%
Bactericidal activity (%) Fusarium graminearumt (Fusarium graminearumt): 41.4%
Bactericidal activity (%) potato late blight (potato late blight): 76.0%
Bactericidal activity (%) Sclerotinia scleotiorum (Sclerotinia scleotiorum): 94.1%
Bactericidal activity (%) Botrytis cinerea (Botrytis cinerea): 86.4%
Bactericidal activity (%) Rhizoctonia solani (Rhizoctonia solani): 88.2%
Bactericidal activity (%) Phytophthora capsici (Phytophthora capsici): 73.7%
Bactericidal activity (%) Fusarium fujikuroi (Fusarium fujikuroi): 57.1%
Bactericidal activity (%) Rhizoctonia cereali (Rhizoctonia cereali): 98.0%
Bactericidal activity (%) Bipolaria maydis (Bipolaria maydis): 84.0%
Bactericidal activity (%) Colletotrichum orbiculare [6]: 77.8%
Armyworm Mortality (%) (armyworms): 10%
Cotton bollworm Mortality (%) (cotton bollworms): 30%
Mosquito larvae Mortality (%) (mosquito larvae): 20%
bactericidal activity against fungi (in words) (14 kinds of fungi): very good bactericidal activity against various kinds of fungi
Corn borer Mortality (%) (corn borers [8]): 5%

C[C@@H]1N[C@H](C(=O)NN=Cc2ccc(Cl)cc2)Cc2c1[nH]c1ccccc21 [Ic-5, (1S, 3S)—N′-(4-chlorobenzylidene)-1-methyl-2,3,4,9-tetrahydropyridino [3,4-b] indol-3-formylhydrazine]
Relative inhibition rate (%) In vitro activity ([2]; treatment dose 100 μg/mL): 30.8%
Relative inhibition rate (%) In vitro activity ([2]; treatment dose 500 μg/mL): 67.3%
Relative inhibition rate (%) In vivo inactivation ([3]; treatment dose 100 μg/mL): 35.9%
Relative inhibition rate (%) In vivo inactivation ([3]; treatment dose 500 μg/mL): 70.4%
Relative inhibition rate (%) In vivo therapy ([4]; treatment dose 100 μg/mL): 29.2%
Relative inhibition rate (%) In vivo therapy ([4]; treatment dose 500 μg/mL): 71.5%
Relative inhibition rate (%) In vivo protection ([5]; treatment dose 100 μg/mL): 34.1%
Relative inhibition rate (%) In vivo protection ([5]; treatment dose 500 μg/mL): 64.2%
Bactericidal activity (%) Cucumber fusarium wilt (cucumber fusarium wilt): 61.5%
Bactericidal activity (%) Cercospora arachidicola (Cercospora arachidicola): 76.5%
Bactericidal activity (%) Macrophoma kawatsukai (Macrophoma kawatsukai): 97.2%
Bactericidal activity (%) Alternaria solani (Alternaria solani): 55.0%
Bactericidal activity (%) Fusarium graminearumt (Fusarium graminearumt): 75.9%
Bactericidal activity (%) potato late blight (potato late blight): 80.0%
Bactericidal activity (%) Sclerotinia scleotiorum (Sclerotinia scleotiorum): 88.2%
Bactericidal activity (%) Botrytis cinerea (Botrytis cinerea): 59.1%
Bactericidal activity (%) Rhizoctonia solani (Rhizoctonia solani): 81.6%
Bactericidal activity (%) Phytophthora capsici (Phytophthora capsici): 81.6%
Bactericidal activity (%) Fusarium fujikuroi (Fusarium fujikuroi): 64.3%
Bactericidal activity (%) Rhizoctonia cereali (Rhizoctonia cereali): 94.1%
Bactericidal activity (%) Bipolaria maydis (Bipolaria maydis): 68.0%
Bactericidal activity (%) Colletotrichum orbiculare [6]: 77.8%
Armyworm Mortality (%) (armyworms): 25%
Cotton bollworm Mortality (%) (cotton bollworms): 25%
Mosquito larvae Mortality (%) (mosquito larvae): 50%
bactericidal activity against fungi (in words) (14 kinds of fungi): very good bactericidal activity against various kinds of fungi
Corn borer Mortality (%) (corn borers [8]): 20%

C[C@@H]1N[C@H](C(=O)NN=Cc2ccc(Cl)c(Cl)c2)Cc2c1[nH]c1ccccc21 [Ic-7, (1S, 3S)—N′-(3,4-dichlorobenzylidene)-1-methyl-2,3,4,9-tetrahydropyridino [3,4-b] indol-3-formylhydrazine]
Relative inhibition rate (%) In vitro activity ([2]; treatment dose 100 μg/mL): 15.1%
Relative inhibition rate (%) In vitro activity ([2]; treatment dose 500 μg/mL): 50.7%
Relative inhibition rate (%) In vivo inactivation ([3]; treatment dose 100 μg/mL): 20.4%
Relative inhibition rate (%) In vivo inactivation ([3]; treatment dose 500 μg/mL): 55.2%
Relative inhibition rate (%) In vivo therapy ([4]; treatment dose 100 μg/mL): 23.5%
Relative inhibition rate (%) In vivo therapy ([4]; treatment dose 500 μg/mL): 48.9%
Relative inhibition rate (%) In vivo protection ([5]; treatment dose 100 μg/mL): 14.8%
Relative inhibition rate (%) In vivo protection ([5]; treatment dose 500 μg/mL): 48.1%
Bactericidal activity (%) Cucumber fusarium wilt (cucumber fusarium wilt): 77.3%
Bactericidal activity (%) Cercospora arachidicola (Cercospora arachidicola): 72.7%
Bactericidal activity (%) Macrophoma kawatsukai (Macrophoma kawatsukai): 97.0%
Bactericidal activity (%) Alternaria solani (Alternaria solani): 71.4%
Bactericidal activity (%) Fusarium graminearumt (Fusarium graminearumt): 76.9%
Bactericidal activity (%) potato late blight (potato late blight): 65.2%
Bactericidal activity (%) Sclerotinia scleotiorum (Sclerotinia scleotiorum): 84.6%
Bactericidal activity (%) Botrytis cinerea (Botrytis cinerea): 80.6%
Bactericidal activity (%) Rhizoctonia solani (Rhizoctonia solani): 62.5%
Bactericidal activity (%) Phytophthora capsici (Phytophthora capsici): 84.8%
Bactericidal activity (%) Fusarium fujikuroi (Fusarium fujikuroi): 70.6%
Bactericidal activity (%) Rhizoctonia cereali (Rhizoctonia cereali): 97.3%
Bactericidal activity (%) Bipolaria maydis (Bipolaria maydis): 80.0%
Bactericidal activity (%) Colletotrichum orbiculare [6]: 80.0%
Armyworm Mortality (%) (armyworms): 5%
Cotton bollworm Mortality (%) (cotton bollworms): 30%
Mosquito larvae Mortality (%) (mosquito larvae): 10%
bactericidal activity against fungi (in words) (14 kinds of fungi): very good bactericidal activity against various kinds of fungi
Corn borer Mortality (%) (corn borers [8]): 5%
